For this assay, the system named is Lewis male rats. To be noted: high doses, oral daily days 5-8 and 11-14; naproxen 10 mg/kg, conjugate 18 mg/kg.

The record followed here is patent publication US6407135B1, “Conjugates of dithiocarbamates with pharmacologically active agents and uses therefor” (Medinox, Inc., priority 1997, dated 2002).

SMILES strings stand for the structures.

Consider `COc1ccc2cc([C@H](C)C(=O)O)ccc2c1` [Naproxen, (S)-(+)-methoxy-α-methyl-2-naphthaleneacetic acid], for which the “Reduction of swelling compared to control by day 15” value is recorded as “approximately 70%”.
